From patent US9624229B2, “Pyrimidine-2-amine compounds and their use as inhibitors of JAK kinases” (Rigel Pharmaceuticals, Inc., priority 2008, dated 2017)
Read-outs that look alike come from different tables or passages of the source.

Target: Ba/F3 V617F cells (Homo sapiens, UniProt O60674, V617F, cells depend on it)
Experiment: Proliferation assay (Cell Titer-Glo, 72 h) utilizing Ba/F3 V617F cells
Assay type: cell-based, mouse
Summary of the method: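 Readout is CellTiter-Glo luminescence after 72 h at 37 °C, giving IC50. Cells: Ba/F3 V617F, 1×10^5 cells/mL in RPMI with 10% FBS, treated in duplicate with 3-fold dilution series made from 5 mM DMSO stock, 1:250 in 5% FBS medium, added at 2×.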

[1] = Ba/F3 V617F cells, proliferation, level of activity to inhibit JAK2, read-out: IC50 (the source's name)
[2] = Ba/F3 V617F cells, proliferation, level of activity given as class symbol, read-out: IC50 (the source's name)
[3] = inhibition of JAK2 activity, proliferation of Ba/F3 V617F cells, read-out: IC50 (the source's name)

Sequence of Ba/F3 V617F cells (O60674 whole entry V617F): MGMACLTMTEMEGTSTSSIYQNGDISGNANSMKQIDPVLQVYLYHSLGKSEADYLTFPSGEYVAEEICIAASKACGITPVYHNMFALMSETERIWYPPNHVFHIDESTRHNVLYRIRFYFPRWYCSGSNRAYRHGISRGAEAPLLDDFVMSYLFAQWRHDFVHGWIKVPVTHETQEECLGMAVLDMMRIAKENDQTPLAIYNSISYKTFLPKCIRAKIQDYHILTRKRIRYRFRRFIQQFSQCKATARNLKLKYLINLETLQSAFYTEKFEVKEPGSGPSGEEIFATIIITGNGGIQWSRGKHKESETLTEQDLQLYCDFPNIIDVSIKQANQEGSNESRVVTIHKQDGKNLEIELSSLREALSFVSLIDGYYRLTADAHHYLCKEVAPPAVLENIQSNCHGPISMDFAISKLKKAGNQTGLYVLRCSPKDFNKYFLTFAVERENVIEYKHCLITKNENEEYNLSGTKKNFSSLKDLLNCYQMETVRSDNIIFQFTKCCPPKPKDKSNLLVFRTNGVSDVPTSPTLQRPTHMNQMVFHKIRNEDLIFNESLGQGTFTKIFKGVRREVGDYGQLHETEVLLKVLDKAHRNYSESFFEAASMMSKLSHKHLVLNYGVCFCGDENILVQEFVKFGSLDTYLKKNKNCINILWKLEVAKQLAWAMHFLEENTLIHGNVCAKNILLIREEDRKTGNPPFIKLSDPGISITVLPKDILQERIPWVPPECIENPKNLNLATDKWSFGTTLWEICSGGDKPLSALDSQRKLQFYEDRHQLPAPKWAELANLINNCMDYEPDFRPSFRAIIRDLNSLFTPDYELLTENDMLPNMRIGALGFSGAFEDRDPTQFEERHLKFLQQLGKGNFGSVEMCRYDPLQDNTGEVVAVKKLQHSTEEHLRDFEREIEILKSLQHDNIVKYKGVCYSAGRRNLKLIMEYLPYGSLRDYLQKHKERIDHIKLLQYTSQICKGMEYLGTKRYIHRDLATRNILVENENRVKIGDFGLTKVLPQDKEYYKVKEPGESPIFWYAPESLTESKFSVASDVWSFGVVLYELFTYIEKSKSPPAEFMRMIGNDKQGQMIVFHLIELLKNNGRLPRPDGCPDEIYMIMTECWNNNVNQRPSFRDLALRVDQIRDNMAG

| Compound | GI50 [1] [nM] | GI50 [2] [nM] | further results |
| --- | --- | --- | --- |
| Cc1cc(Nc2nccc(-c3ccc(N4CCCC(C(N)=O)C4)nc3)n2)ccc1N1C[C@@H]2C[C@H]1CN2C (stereo partly drawn) [compound 191, 4-(6-(3-(aminocarbonyl)piperidin-1-yl)pyridin-3-yl)-N-(3-methyl-4-((1S,4S)-5-methyl-2,5-diazabicyclo[2.2.1]heptan-2-yl)phenyl)pyrimidin-2-amine] | – | 1000 to 10000 | – |
| Cc1cc(Nc2nccc(-c3ccc4c(c3)CCCC(=O)N4)n2)ccc1N1C[C@@H]2C[C@H]1CN2C [compound 242, 4-(2-oxo-2,3,4,5-tetrahydro-1H-benzo[b]azepin-7-yl)-N-(3-methyl-4-((1S,4S)-5-methyl-2,5-diazabicyclo[2.2.1]heptan-2-yl)phenyl)pyrimidin-2-amine] | – | < 1000 | – |
| Cc1cc(Nc2nccc(-c3ccc(NCCCN(C)C)nc3)n2)ccc1N1C[C@@H]2C[C@H]1CO2 [compound 203, 4-(6-(3-dimethylamino)propylaminopyridin-3-yl)-N-(3-methyl-4-((1S,4S)-5-oxa-2-azabicyclo[2.2.1]heptan-2-yl)phenyl)pyrimidin-2-amine] | – | < 1000 | – |
| Cc1cc(Nc2nccc(-c3ccc(N4C[C@@H]5C[C@H]4CO5)nc3)n2)cnc1N1C[C@@H]2C[C@H]1CN2C [compound 266, 4-(6-((1S,4S)-2-oxa-5-azabicyclo[2.2.1]heptan-5-yl)pyridin-3-yl)-N-(5-methyl-6-((1S,4S)-5-methyl-2,5-diazabicyclo[2.2.1]heptan-2-yl)pyridin-3-yl)pyrimidin-2-amine] | – | – | GI50 [3]: < 1000 nM |
| Cc1cc(Nc2nccc(-c3cnc4c(c3)OC(C)(C)C(=O)N4C)n2)ccc1N1C[C@@H]2C[C@H]1CN2C [compound 125, 4-(2,2,4-trimethyl-3-oxo-3,4-dihydro-2H-pyrido[3,2-b][1,4]oxazin-7-yl)-N-(3-methyl-4-((1S,4S)-5-methyl-2,5-diazabicyclo[2.2.1]heptan-2-yl)phenyl)pyrimidin-2-amine] | < 1000 | – | – |
| Cc1cc(Nc2nccc(-c3ccc(N4CCOCC4)nc3)n2)ccc1N1C2CCC1CC2 [compound 110, 4-(6-(morpholin-4-yl)pyridin-3-yl)-N-(3-methyl-4-(7-azabicyclo[2.2.1]heptan-7-yl)phenyl)pyrimidin-2-amine] | 1000 to 10000 | – | – |
| CC(=O)Nc1ccc(-c2ccnc(Nc3ccc(N4CC5CCC(C4)N5C)cc3)n2)cc1 [compound 162, 4-(4-(acetamido)phenyl)-N-(4-(8-methyl-3,8-diazabicyclo[3.2.1]octan-3-yl)phenyl)pyrimidin-2-amine] | < 1000 | – | – |
| Cc1cc(Nc2nccc(-c3cnc4c(c3)OC(C)(C)C(=O)N4)n2)ccc1N1CCN2CCC1C2 (stereo not shown) [compound 252, 4-(2,2-dimethyl-3-oxo-3,4-dihydro-2H-pyrido[3,2-b][1,4]oxazin-7-yl)-N-(3-methyl-4-(1,4-diazabicyclo[3.2.1]octan-4-yl)phenyl)pyrimidin-2-amine] | – | < 1000 | – |
| Cc1cc(Nc2nccc(-c3ccc(N4CCOCC4)nc3)n2)cnc1N1C[C@@H]2C[C@H]1CN2C [compound 66, 4-(6-(morpholin-4-yl)pyridin-3-yl)-N-(5-methyl-6-((1S,4S)-5-methyl-2,5-diazabicyclo[2.2.1]heptan-2-yl)pyridin-3-yl)pyrimidin-2-amine] | – | – | GI50 [3]: 1000 to 10000 nM |
| CN1C[C@@H]2C[C@H]1CN2c1ccc(Nc2nccc(-c3cncc(S(C)(=O)=O)c3)n2)cc1F [compound 101, 4-(5-(methyl)sulfonylpyridin-3-yl)-N-(3-fluoro-4-((1S,4S)-5-methyl-2,5-diazabicyclo[2.2.1]heptan-2-yl)phenyl)pyrimidin-2-amine] | < 1000 | – | – |
| CC1(C)Oc2cc(-c3ccnc(Nc4ccc(C5CC6CC5CN6S(C)(=O)=O)cc4)n3)cnc2NC1=O (stereo not shown) [compound 226, 4-(2,2-dimethyl-3-oxo-3,4-dihydro-2H-pyrido[3,2-b][1,4]oxazin-7-yl)-N-(4-(2-methylsulfonyl-2-azabicyclo[2.2.1]heptan-5-yl)phenyl)pyrimidin-2-amine] | – | 1000 to 10000 | – |
| CN1C[C@@H]2C[C@H]1CN2c1ccc(Nc2nccc(-c3ccc(NCCN4CCOCC4)nc3)n2)cc1 [compound 69, 4-(6-(2-(morpholin-4-yl)ethyl)aminopyridin-3-yl)-N-(4-((1S,4S)-5-methyl-2,5-diazabicyclo[2.2.1]heptan-2-yl)phenyl)pyrimidin-2-amine] | 1000 to 10000 | – | – |
| Cc1cc(Nc2nccc(-c3ccc(N4CCOCC4)nc3)n2)ccc1N1C2CCC1CC(N1CCOCC1)C2 (stereo not shown) [compound 284, 4-(6-(morpholin-4-yl)pyridin-3-yl)-N-(3-methyl-4-(3-(morpholin-4-yl)-8-azabicyclo[3.2.1]octan-8-yl)phenyl)pyrimidin-2-amine] | – | < 1000 | – |
| Cc1cc(Nc2nccc(-c3cc[nH]c3)n2)ccc1N1C[C@@H]2C[C@H]1CN2C [compound 169, 4-(1H-pyrrol-3-yl)-N-(3-methyl-4-((1S,4S)-5-methyl-2,5-diazabicyclo[2.2.1]heptan-2-yl)phenyl)pyrimidin-2-amine] | 1000 to 10000 | – | – |
| CN1C[C@@H]2C[C@H]1CN2c1ccc(Nc2nccc(-c3ccc(C(=O)Nc4ccccn4)cc3)n2)cc1F [compound 133, 4-(4-((pyridin-2-yl)aminocarbonyl)phenyl)-N-(3-fluoro-4-((1S,4S)-5-methyl-2,5-diazabicyclo[2.2.1]heptan-2-yl)phenyl)pyrimidin-2-amine] | 1000 to 10000 | – | – |
| CCCNc1ccc(-c2ccnc(Nc3ccc(N4C[C@@H]5C[C@H]4CN5S(C)(=O)=O)c(C)c3)n2)cn1 [compound 238, 4-(6-(propylamino)pyridin-3-yl)-N-(3-methyl-4-((1S,4S)-5-methylsulfonyl-2,5-diazabicyclo[2.2.1]heptan-2-yl)phenyl)pyrimidin-2-amine] | – | < 1000 | – |
| Cc1cc(Nc2nccc(-c3ccc(NCCNS(=O)(=O)C4CC4)nc3)n2)ccc1N1C[C@@H]2C[C@H]1CO2 [compound 100, 4-(6-((2-(cyclopropylsulfonyl)aminoethyl)-amino)pyridin-3-yl)-N-(3-methyl-4-((1S,4S)-5-oxa-2-azabicyclo[2.2.1]heptan-2-yl)phenyl)pyrimidin-2-amine] | < 1000 | – | – |
| Cc1cc(Nc2nccc(-c3cnc4c(c3)OC(C)(C)C(=O)N4)n2)ccc1N1C[C@@H]2CC[C@H]1C2 [compound 223, 4-(2,2-dimethyl-3-oxo-3,4-dihydro-2H-pyrido[3,2-b][1,4]oxazin-7-yl)-N-(3-methyl-4-((1S,4R)-2-azabicyclo[2.2.1]heptan-2-yl)phenyl)pyrimidin-2-amine] | – | < 1000 | – |
| Cc1cc(-c2ccnc(Nc3ccc(N4CC5(C)CN(C)CC(C)(C4)C5)c(F)c3)n2)cnc1N1CCOCC1 [compound 82, 4-(5-methyl-6-(morpholin-4-yl)pyridin-3-yl)-N-(3-fluoro-4-(1,5,7-trimethyl-3,7-diazabicyclo[3.3.1]nonan-3-yl)phenyl)pyrimidin-2-amine] | < 1000 | – | – |
| Cc1cc(Nc2nccc(-c3cnc(N4CCOCC4)nc3)n2)ccc1N1C[C@@H]2C[C@H]1CN2C [compound 41, 4-(2-(morpholin-4-yl)pyrimidin-5-yl)-N-(3-methyl-4-((1S,4S)-5-methyl-2,5-diazabicyclo[2.2.1]heptan-2-yl)phenyl)pyrimidin-2-amine] | < 1000 | – | – |

More lines, main results first:

| GI50 [1] [nM] | GI50 [2] [nM] | Compound | further results |
| --- | --- | --- | --- |
| < 1000 | – | CN(C)c1ccc(-c2ccnc(Nc3ccc(N4C[C@@H]5C[C@H]4CN5C)cc3)n2)cn1 [compound 183, 4-(6-(dimethylamino)pyridin-3-yl)-N-(4-((1S,4S)-5-methyl-2,5-diazabicyclo[2.2.1]heptan-2-yl)phenyl)pyrimidin-2-amine] | – |
| – | < 1000 | Cc1cc(Nc2nccc(-c3ccc(N4CCOCC4)nc3)n2)ccc1N1C[C@@H]2C[C@H]1CN2CC(C)C [compound 205, 4-(6-(morpholin-4-yl)pyridin-3-yl)-N-(3-methyl-4-((1S,4S)-5-isobutyl-2,5-diazabicyclo[2.2.1]heptan-2-yl)phenyl)pyrimidin-2-amine] | – |
| 1000 to 10000 | – | CN1CC2(C)CN(c3ccc(Nc4nccc(-c5cnc6c(c5)OCCN6)n4)cc3F)CC(C)(C1)C2 [compound 89, 4-(3,4-dihydro-2H-pyrido[3,2-b][1,4]oxazin-7-yl)-N-(3-fluoro-4-(1,5,7-trimethyl-3,7-diazabicyclo[3.3.1]nonan-3-yl)phenyl)pyrimidin-2-amine] | – |
| – | 1000 to 10000 | Cc1cc(Nc2nccc(-c3cnc4[nH]c5c(c4c3)CCCC5)n2)ccc1N1C[C@@H]2C[C@H]1CN2C [compound 267, 4-(6,7,8,9-tetrahydro-5H-pyrido[2,3-b]indol-3-yl)-N-(3-methyl-4-((1S,4S)-5-methyl-2,5-diazabicyclo[2.2.1]heptan-2-yl)phenyl)pyrimidin-2-amine] | – |
| – | < 1000 | CN1C[C@@H]2C[C@H]1CN2c1ccc(Nc2nccc(-c3ccc4c(c3)OC(C)(C)C(=O)N4)n2)cc1C#N [compound 271, 4-(2,2-dimethyl-3-oxo-3,4-dihydro-2H-benzo[b][1,4]oxazin-7-yl)-N-(3-cyano-4-((1S,4S)-5-methyl-2,5-diazabicyclo[2.2.1]heptan-2-yl)phenyl)pyrimidin-2-amine] | – |
| – | < 1000 | Cc1cc(Nc2nccc(-c3cnc4c(c3)OCC(=O)N4)n2)ccc1N1C[C@@H]2C[C@H]1CO2 [compound 210, 4-(3-oxo-3,4-dihydro-2H-pyrido[3,2-b][1,4]oxazin-7-yl)-N-(3-methyl-4-((1S,4S)-5-oxa-2-azabicyclo[2.2.1]heptan-2-yl)phenyl)pyrimidin-2-amine] | – |
| < 1000 | – | CN1C(=O)C(C)(C)Oc2cc(-c3ccnc(Nc4ccc(N5C[C@@H]6C[C@H]5CN6C)c(F)c4)n3)cnc21 [compound 126, 4-(2,2,4-trimethyl-3-oxo-3,4-dihydro-2H-pyrido[3,2-b][1,4]oxazin-7-yl)-N-(3-fluoro-4-((1S,4S)-5-methyl-2,5-diazabicyclo[2.2.1]heptan-2-yl)phenyl)pyrimidin-2-amine] | – |
| < 1000 | – | Cc1cc(Nc2nccc(-c3ccc(NC(=O)C(C)(C)C)cc3)n2)ccc1N1C[C@@H]2C[C@H]1CN2C [compound 129, 4-(4-(t-butylcarbonylamino)phenyl)-N-(3-methyl-4-((1S,4S)-5-methyl-2,5-diazabicyclo[2.2.1]heptan-2-yl)phenyl)pyrimidin-2-amine] | – |
